# Measured values taken from patent US5043328A, “Formulations containing unsaturated fatty acids for the synthesis of prostaglandins and hydroxy-fatty acids in biological systems” (priority 1986, dated 1991).
# Where two headings read alike, the source gives them in different places.
# Legend:
# [1] = Storage of sodium arachidonate solution at room temperature for 6 weeks; format: physicochemical; conditions: water; solution without additions, after 6 weeks at room temperature; read-out: arachidonic acid content
# Method: 50 mg of sodium arachidonate, 500 mg of bovine serum albumin and 500 mg of L-tyrosine are dissolved under sterile conditions in 10 ml of twice distilled water and, likewise under sterile conditions, stored in a brown bottle. 93.5% of the arachidonic acid originally present are recovered after 6 weeks' storage at room temperature, whereas the same sodium arachidonate solution without additions virtually no longer contain any arachidonic acid after this time (content <0.8). The stabilized solution prepared in this way
# [2] = for Stability (% of remaining arachidonic acid by Method 1): 24 h 37° C.; for undesired decomposition / byproducts of polyunsaturated fatty acid (arachidonic acid) with added stimulator: aqueous medium, result in words
# Method: Method 1: Investigation of the Stability of Unsaturated Fatty Acids in the Formulations
# The stabilizing action of substances on polyunsaturated fatty acids was investigated as follows:
# Test A for Water-Soluble Substances:
# 0.125 mg of unsaturated fatty acid or Na salt (see tables) (sodium arachidonate, from Sigma, Munich, Germany) is dissolved in 0.05 ml of water. 0.2 ml of aqueous solution which contains 2 mg of stabilizer and can additionally contain 2 mg of stimulator is mixed in (cf. Table 1), 0.1 ml is then taken out immediately, extracted and analysed (see below). Further processing according to modification 1 or 2.
# Modification 1 for Aqueous Solutions
# After 24 hours incubation at 37° C., 0.1 ml is again taken, extracted and analysed (see below).
# Modification 2 for Solid Mixtures (Lyophilisates)
# The test solution is lyophilized, the lyophilisate is incubated for 24 hours at 37° C. and then dissolved again in the previous quantity of water, and 0.1 ml is taken, extracted and analysed (see below).
# Test B for Water-Insoluble Substances:
# 0.125 mg of unsaturated fatty acid (arachidonic acid, 5,8,11,14,17-eicosapentaenoic acid or 8,11,14-eicosatrienoic acid, from Sigma, Munich) is dissolved in 0.05 ml of ethanol or dimethyl sulfoxide. 0.2 ml of ethanol (or dimethyl sulfoxide) which contains 2 mg of stabilizer and can additionally contain 2 mg of the stimulator (cf. Table 1) is added thereto, and 0.1 ml is taken immediately and, as below, extracted and analysed. Further treatment according to modification 1 or 2.
# Modification 1 for Solutions
# After 24 hours' incubation at 37° C., 0.1 ml is again taken, mixed with 0.1 ml of water, extracted and analysed.
# Modification 2 for Solid Mixtures
# The remaining solution is freed of solvent, incubated for 24 hours at 37° C. and then dissolved again in 0.15 ml of solvent, and 0.1 ml is taken, mixed with 0.1 ml of water, extracted and analysed.
# 0.05 ml of 1.2M aqueous citric acid solution is added to the samples obtained, and the samples are extracted with twice 0.5 ml of ethyl acetate, the ethyl acetate is removed from the combined extracts and the residue is dissolved in 0.8 ml of methanol and analysed by means of high-pressure liquid chromatography (HPLC) (Rad Pak C-18 column, 100×8 mm, from Waters, Konigstein, Germany, 1.5 ml/minute, solvent 800 ml of methanol, 200 ml of water and 0.1 ml of glacial acetic acid). The separation is monitored with a commercially available UV detector at 206 nm.
# The prostaglandins PGE2, PGF2 alpha and PGD2 as products from arachidonic acid where quantified by means of method 2, and the sum was related as "total prostaglandin" to 100%. The quantity of "total prostaglandin" formed without the addition of a stimulator was set at f=1; the quantity formed after stimulation was related thereto. f=2 or f=3 therefore means twice or three times the stimulation under the conditions of method 2. The stability of the sample was investigated by means of method 1 (right-hand column). […] Values greater than 25-28% therefore represent a stabilization, and values smaller than 25-28% represent a destabilization. Example No. 1 was carried out without a stimulator.
# [3] = target: T1, enzyme (from seminal vesicles of sheep) (Ovis aries, UniProt P05979); conditions: for relative total prostaglandin f: seminal vesicle enzyme, 10 min, pH 8
# T1 sequence (P05979 25-600): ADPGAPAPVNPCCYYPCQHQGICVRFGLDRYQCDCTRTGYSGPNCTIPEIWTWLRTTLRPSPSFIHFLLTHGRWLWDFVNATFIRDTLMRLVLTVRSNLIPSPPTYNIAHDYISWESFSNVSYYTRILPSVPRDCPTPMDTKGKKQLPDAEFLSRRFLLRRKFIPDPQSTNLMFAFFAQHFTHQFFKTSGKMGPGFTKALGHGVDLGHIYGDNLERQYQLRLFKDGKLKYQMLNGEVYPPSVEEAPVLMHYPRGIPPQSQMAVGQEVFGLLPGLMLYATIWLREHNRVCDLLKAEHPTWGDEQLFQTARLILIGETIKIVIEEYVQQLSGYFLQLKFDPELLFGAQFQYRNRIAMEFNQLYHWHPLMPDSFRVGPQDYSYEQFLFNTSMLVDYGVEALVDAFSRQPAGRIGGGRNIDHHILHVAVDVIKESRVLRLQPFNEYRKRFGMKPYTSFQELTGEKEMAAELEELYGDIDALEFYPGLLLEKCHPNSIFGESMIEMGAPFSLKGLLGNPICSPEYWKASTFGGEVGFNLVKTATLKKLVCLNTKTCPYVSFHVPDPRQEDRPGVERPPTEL
# [4] = A) aqueous solution without stabilizer addition
# [5] = B) ethanolic solution without further addition
# [6] = L) like J) with hemoglobin (human)
# [7] = Table 1, share of total prostaglandin (=100%)
# [8] = Table 2, share of total prostaglandin
compound,measurement,setting,value
CCCCC/C=C\C/C=C\C/C=C\C/C=C\CCCC(=O)O [sodium arachidonate],remaining at 1008 h,[1],< 0.8%
"N[C@@H](CCC(=O)N[C@@H](CS)C(=O)NCC(=O)O)C(=O)O [Example 35, Glutathione]",Stability (% of remaining arachidonic acid by Method 1),[2]; [4],0%
same,Stability (% of remaining arachidonic acid by Method 1),[2]; [5],80%
same,Stability (% of remaining arachidonic acid by Method 1),[2]; C) pyridine solution,0%
same,Stability (% of remaining arachidonic acid by Method 1),[2]; H) like A) with bovine serum albumin,91%
same,Stability (% of remaining arachidonic acid by Method 1),"[2]; J) like A) or B), but solvent stripped off",0%
same,Stability (% of remaining arachidonic acid by Method 1),[2]; [6],92%
same,undesired decomposition / byproducts of polyunsaturated fatty acid (arachidonic acid) with added stimulator,[2],markedly greater quantity
same,PGD2 %,[3]; [7],0%
same,PGE2 %,[3]; [7],100%
same,PGF2alpha %,[3]; [7],0%
same,relative total prostaglandin f,[3],13.5
"O=C(CCc1ccc(O)cc1)c1c(O)cc(O)cc1O[C@@H]1O[C@H](CO)[C@@H](O)[C@H](O)[C@H]1O [Example 53, Phlorizin]",Stabilization (% remaining unsaturated fatty acid by Method 1),[2]; 1440 min,97%
same,PGD2 %,[3]; [8],18%
same,PGE2 %,[3]; [8],80%
same,PGF2alpha %,[3]; [8],2%
same,relative total prostaglandin f,[3],3
O=C(O)CCc1c[nH]c2ccc(O)cc12 [Example 21],Stability (% remaining fatty acid by Method 1),[2]; 1440 min,96%
same,PGD2 %,[3]; [7],17%
same,PGE2 %,[3]; [7],80%
same,PGF2alpha %,[3]; [7],3%
same,relative total prostaglandin f,[3],5.7
"O=C1N[C@@H](Cc2c[nH]c3ccccc23)C(=O)N[C@H]1Cc1ccc(O)cc1 [Example 32, Cyclo-TrpTyr]",Stabilization,[2],positive
same,Stimulation,"[3]; Table 1, result in words",positive
"O=C(O)CCCCC1CCSS1 (centres unmarked) [Example 36, Lipoic acid]",undesired decomposition / byproducts of polyunsaturated fatty acid (arachidonic acid) with added stimulator,[2],fully suppressed
same,PGD2 %,[3]; [7],8%
same,PGE2 %,[3]; [7],43%
same,PGF2alpha %,[3]; [7],49%
same,stimulation of prostaglandin synthesis with much smaller quantities of undesired byproducts,"[3]; mixtures with polyunsaturated fatty acids such as arachidonic acid, result in words",stimulated
CC(=O)NC(Cc1ccc(O)cc1)C(N)=O (centres unmarked) [Example 11],Stabilization,[2],positive
same,Stimulation,"[3]; Table 1, result in words",positive
NCCc1c[nH]c2ccc(O)cc12 [Example 22],Stability (% of remaining arachidonic acid by Method 1),[2]; [4],16%
same,Stability (% of remaining arachidonic acid by Method 1),[2]; [5],99%
same,Stability (% of remaining arachidonic acid by Method 1),"[2]; E) like B) with lecithin, ethanol stripped off",96%
same,Stability (% of remaining arachidonic acid by Method 1),[2]; F) like A) with cytochrome c from horse heart,98%
same,Stability (% of remaining arachidonic acid by Method 1),[2]; K) like J) with cytochrome c,98%
same,Stability (% of remaining arachidonic acid by Method 1),[2]; [6],100%
same,PGD2 %,[3]; [7],20%
same,PGE2 %,[3]; [7],75%
same,PGF2alpha %,[3]; [7],5%
same,relative total prostaglandin f,[3],10.6
